# Results published in US12145944B2, “Imidazopyrimidines as EED inhibitors and the use thereof” (THE REGENTS OF THE UNIVERSITY OF MICHIGAN, priority 2019, dated 2024).
# Tested on: KARPAS422 human B cell lymphoma cell
# Assay: Cell proliferation, KARPAS422, 7 day treatment (WST-8)
# Format: cell-based
# Conditions: Homo sapiens, KARPAS-422, 168 h, anti-proliferative IC50, Karpas 422 cell line, 7 day treatment; read-out: Karpas Cell line
# Description: “N/A” stands for “not assessed”.
# Analysis of Cell Proliferation:
# To assess the effect of PRC2 inhibition on cell growth, cells were seeded in 96-well cell culture plates at a density of 2 000-3 000 cells/well in 200 µL of culture medium, and treated with serially diluted compounds for 7 days at 37° C. in an atmosphere of 5% CO2. Cell growth was evaluated by a […] WST-8 assay (Dojindo Molecular Technologies) using a Tecan Infinite M1000 multimode microplate reader (Tecan, Morrisville, NC). The WST-8 reagent was added to the plate, incubated for 1-4 h, and read at 450 nm. The readings were normalized to the DMSO-treated cells, and the IC50 was calculated by nonlinear regression analysis using GraphPad Prism 6 software
row,IC50,SMILES
1,> 100 nM,"CNC(=O)c1ncn2c(NCc3ccco3)ncc(-c3ccccc3)c12 [Cpd. No. 128, 5-((furan-2-ylmethyl)amino)-N-methyl-8-phenylimidazo[1,5-c]pyrimidine-1-carboxamide]"
2,0.65 nM,"CC1(O)CC(CN2Cc3nc(C(F)(F)F)ccc3-c3cnc(NCc4c(F)ccc5c4CCO5)n4cnc(c34)C2=O)C1 (stereo not shown) [compound 47, 12-(((5-fluoro-2,3-dihydrobenzofuran-4-yl)methyl)amino)-4-((3-hydroxy-3-methylcyclobutyl)methyl)-7-(trifluoromethyl)-4,5-dihydro-3H-2,4,6,11,12a-pentaazabenzo[4,5]cycloocta[1,2,3-cd]inden-3-one]"
3,0.74 nM,"CC(C)(O)CN1Cc2cc(C(F)(F)F)ncc2-c2cnc(NCc3c(F)ccc4c3CCO4)n3cnc(c23)C1=O [compound 48, 12-(((5-fluoro-2,3-dihydrobenzofuran-4-yl)methyl)amino)-4-(2-hydroxy-2-methylpropyl)-7-(trifluoromethyl)-4,5-dihydro-3H-2,4,8,11,12a-pentaazabenzo[4,5]cycloocta[1,2,3-cd]inden-3-one]"
4,2.78 nM,"CC1(O)CC(CN2Cc3cc(C(F)(F)F)ncc3-c3cnc(NCc4c(F)ccc5c4CCO5)n4cnc(c34)C2=O)C1 (stereo not shown) [compound 49, 12-(((5-fluoro-2,3-dihydrobenzofuran-4-yl)methyl)amino)-4-((3-hydroxy-3-methylcyclobutyl)methyl)-7-(trifluoromethyl)-4,5-dihydro-3H-2,4,8,11,12a-pentaazabenzo[4,5]cycloocta[1,2,3-cd]inden-3-one]"
5,8.08 nM,"O=C1c2ncn3c(NCc4c(F)ccc5c4CCO5)ncc(c23)-c2ccc(C(F)(F)F)nc2CN1CC1CC1 [compound 55, 4-(cyclopropylmethyl)-12-(((5-fluoro-2,3-dihydrobenzofuran-4-yl)methyl)amino)-7-(trifluoromethyl)-4,5-dihydro-3H-2,4,6,11,12a-pentaazabenzo[4,5]cycloocta[1,2,3-cd]inden-3-one]"
6,21 nM,"Cc1nn(C)c2c1-c1cnc(NCc3c(F)ccc4c3CCO4)n3cnc(c13)C(=O)N(C1CC1)C2 [compound 56, 4-cyclopropyl-11-(((5-fluoro-2,3-dihydrobenzofuran-4-yl)methyl)amino)-6,8-dimethyl-5,6-dihydro-2,4,6,7,10,11a-hexaazacyclopenta[4,5]cycloocta[1,2,3-cd]inden-3(4H)-one]"
7,2.63 nM,"COCCN1Cc2nc(C(F)(F)F)ccc2-c2cnc(NCc3c(F)ccc4c3CCO4)n3cnc(c23)C1=O [compound 57, 12-(((5-fluoro-2,3-dihydrobenzofuran-4-yl)methyl)amino)-4-(2-methoxyethyl)-7-(trifluoromethyl)-4,5-dihydro-3H-2,4,6,11,12a-pentaazabenzo[4,5]cycloocta[1,2,3-cd]inden-3-one]"
8,1.18 nM,"O=C1c2ncn3c(NCc4c(F)ccc5c4CCO5)ncc(c23)-c2ccc(C(F)(F)F)cc2CN1C1CCOCC1 [compound 60, 12-(((5-fluoro-2,3-dihydrobenzofuran-4-yl)methyl)amino)-4-(tetrahydro-2H-pyran-4-yl)-7-(trifluoromethyl)-4,5-dihydro-3H-2,4,11,12a-tetraazabenzo[4,5]cycloocta[1,2,3-cd]inden-3-one]"
9,4.86 nM,"CC(C)(F)CN1Cc2cc(C(F)(F)F)ccc2-c2cnc(NCc3c(F)ccc4c3CCO4)n3cnc(c23)C1=O [compound 62, 12-(((5-fluoro-2,3-dihydrobenzofuran-4-yl)methyl)amino)-4-(2-fluoro-2-methylpropyl)-7-(trifluoromethyl)-4,5-dihydro-3H-2,4,11,12a-tetraazabenzo[4,5]cycloocta[1,2,3-cd]inden-3-one]"
10,3.69 nM,"CC(F)(F)CN1Cc2cc(C(F)(F)F)ccc2-c2cnc(NCc3c(F)ccc4c3CCO4)n3cnc(c23)C1=O [compound 63, 4-(2,2-difluoropropyl)-12-(((5-fluoro-2,3-dihydrobenzofuran-4-yl)methyl)amino)-7-(trifluoromethyl)-4,5-dihydro-3H-2,4,11,12a-tetraazabenzo[4,5]cycloocta[1,2,3-cd]inden-3-one]"

# The remaining lines, values behind:
row,SMILES,IC50
1,"c1ccc(-c2cnc(NCc3ccco3)n3cncc23)cc1 [Cpd. No. 126, N-(furan-2-ylmethyl)-8-phenylimidazo[1,5-c]pyrimidin-5-amine]",> 100 nM
2,"CCOC(=O)c1ncn2c(NCc3ccco3)ncc(-c3ccccc3)c12 [Cpd. No. 127, ethyl 5-((furan-2-ylmethyl)amino)-8-phenylimidazo[1,5-c]pyrimidine-1-carboxylate]",> 100 nM
3,"Fc1ccc2c(c1CNc1ncc(-c3ccccc3)c3c(C(F)(F)F)ncn13)CCO2 [Cpd. No. 143, N-((5-fluoro-2,3-dihydrobenzofuran-4-yl)methyl)-8-phenyl-1-(trifluoromethyl)imidazo[1,5-c]pyrimidin-5-amine]",> 100 nM
4,"CP(C)(=O)c1ncn2c(NCc3c(F)ccc4c3CCO4)ncc(-c3ccccc3)c12 [Cpd. No. 144, (5-(((5-fluoro-2,3-dihydrobenzofuran-4-yl)methyl)amino)-8-phenylimidazo[1,5-c]pyrimidin-1-yl)dimethylphosphine oxide]",> 10 nM
5,"O=C1OCc2cc(OC(F)(F)F)ccc2-c2cnc(NCc3c(F)ccc4c3CCO4)n3cnc1c23 [compound 31, 12-(((5-fluoro-2,3-dihydrobenzofuran-4-yl)methyl)amino)-7-(trifluoromethoxy)-3H,5H-4-oxa-2,11,12a-triazabenzo[4,5]cycloocta[1,2,3-cd]inden-3-one]",3.68 nM
6,"O=C1c2ncn3c(NCc4c(F)ccc5c4CCO5)ncc(c23)-c2ccc(C(F)(F)F)nc2CN1CC1CCOCC1 [compound 46, 12-(((5-fluoro-2,3-dihydrobenzofuran-4-yl)methyl)amino)-4-((tetrahydro-2H-pyran-4-yl)methyl)-7-(trifluoromethyl)-4,5-dihydro-3H-2,4,6,11,12a-pentaazabenzo[4,5]cycloocta[1,2,3-cd]inden-3-one]",0.57 nM
7,"Cc1ccc2c(n1)CN(CC1CC(C)(O)C1)C(=O)c1ncn3c(NCc4c(F)ccc5c4CCO5)ncc-2c13 (stereo not shown) [compound 50, 12-(((5-fluoro-2,3-dihydrobenzofuran-4-yl)methyl)amino)-4-((3-hydroxy-3-methylcyclobutyl)methyl)-7-methyl-4,5-dihydro-3H-2,4,6,11,12a-pentaazabenzo[4,5]cycloocta[1,2,3-cd]inden-3-one]",0.71 nM
8,"O=C1c2ncn3c(NCc4c(F)ccc5c4CCO5)ncc(c23)-c2ccc(C(F)(F)F)nc2CN1C1CCOCC1 [compound 51, 12-(((5-fluoro-2,3-dihydrobenzofuran-4-yl)methyl)amino)-4-(tetrahydro-2H-pyran-4-yl)-7-(trifluoromethyl)-4,5-dihydro-3H-2,4,6,11,12a-pentaazabenzo[4,5]cycloocta[1,2,3-cd]inden-3-one]",2.08 nM
9,"O=C1c2ncn3c(NCc4c(F)ccc5c4CCO5)ncc(c23)-c2ccc(C(F)(F)F)nc2CN1CC1CCOC1 (stereo not shown) [compound 52, 12-(((5-fluoro-2,3-dihydrobenzofuran-4-yl)methyl)amino)-4-((tetrahydrofuran-3-yl)methyl)-7-(trifluoromethyl)-4,5-dihydro-3H-2,4,6,11,12a-pentaazabenzo[4,5]cycloocta[1,2,3-cd]inden-3-one]",0.54 nM
10,"Cn1ncc2c1CNC(=O)c1ncn3c(NCc4c(F)ccc5c4CCO5)ncc-2c13 [compound 53, 11-(((5-fluoro-2,3-dihydrobenzofuran-4-yl)methyl)amino)-6-methyl-5,6-dihydro-2,4,6,7,10,11a-hexaazacyclopenta[4,5]cycloocta[1,2,3-cd]inden-3(4H)-one]",> 100 nM
11,"Cn1cc2c(n1)COC(=O)c1ncn3c(NCc4c(F)ccc5c4CCO5)ncc-2c13 [compound 54, 11-(((5-fluoro-2,3-dihydrobenzofuran-4-yl)methyl)amino)-7-methyl-5,7-dihydro-3H-4-oxa-2,6,7,10,11a-pentaazacyclopenta[4,5]cycloocta[1,2,3-cd]inden-3-one]",> 100 nM
12,"CC(C)N1Cc2nc(C(F)(F)F)ccc2-c2cnc(NCc3c(F)ccc4c3CCO4)n3cnc(c23)C1=O [compound 59, 12-(((5-fluoro-2,3-dihydrobenzofuran-4-yl)methyl)amino)-4-isopropyl-7-(trifluoromethyl)-4,5-dihydro-3H-2,4,6,11,12a-pentaazabenzo[4,5]cycloocta[1,2,3-cd]inden-3-one]",39.9 nM
13,"O=C1c2ncn3c(NCc4c(F)ccc5c4CCO5)ncc(c23)-c2ccc(C(F)(F)F)cc2CN1CCF [compound 61, 12-(((5-fluoro-2,3-dihydrobenzofuran-4-yl)methyl)amino)-4-(2-fluoroethyl)-7-(trifluoromethyl)-4,5-dihydro-3H-2,4,11,12a-tetraazabenzo[4,5]cycloocta[1,2,3-cd]inden-3-one]",1.63 nM
14,"O=C1c2ncn3c(NCc4c(F)ccc5c4CCO5)ncc(c23)-c2ccc(C(F)(F)F)cc2CN1CC1CCOCC1 [compound 66, 12-(((5-fluoro-2,3-dihydrobenzofuran-4-yl)methyl)amino)-4-((tetrahydro-2H-pyran-4-yl)methyl)-7-(trifluoromethyl)-4,5-dihydro-3H-2,4,11,12a-tetraazabenzo[4,5]cycloocta[1,2,3-cd]inden-3-one]",0.74 nM

# Same assay, conditions: anti-proliferative IC50, Karpas 422 cell line, 7 day treatment; read-out: Karpas Cell line
row,IC50,SMILES
1,2.44 nM,"O=C1c2ncn3c(NCc4c(F)ccc5c4CCO5)ncc(c23)-c2ccc(F)cc2CN1C1CC1 [compound 64, 4-cyclopropyl-7-fluoro-12-(((5-fluoro-2,3-dihydrobenzofuran-4-yl)methyl)amino)-4,5-dihydro-3H-2,4,11,12a-tetraazabenzo[4,5]cycloocta[1,2,3-cd]inden-3-one]"
